Twelve compounds from US6552192B1, “Substituted nitrogen heterocyclic derivatives and pharmaceutical use thereof” (Ustau Experimentalni Botaniky AV-CR, priority 1999, dated 2003) can be followed below.

For data set [1], the target named is T1, CDC2 (p34^cdc2) (Homo sapiens, UniProt P06493).
T1 construct: made in house; host or cells: Sf9 insect cells (baculovirus co-infection)
As to the kind of experiment: CDK inhibition assay, p34cdc2 kinase (histone H1 phosphorylation). In kind it is biochemical. Conditions: 1 mg/ml histone H1, 15 μM ATP. The method, then: Cyclin-dependent kinases (p34^cdc2, p33^cdk2, p33^cdk4) and cyclins (cyclin B, E and D1) are produced in Sf9 insect cells coinfected with appropriate baculoviral constructs. The cells are harvested 68-72 hrs post infection in lysis buffer for 30 min on ice and the soluble fraction is recovered by centrifugation at 14.000 g for 10 min. The protein extract is stored at −80° C.
Lysis buffer: 50 mM Tris pH 7,4, 150 mM NaCl, 5 mM EDTA, 20 mM NaF, 1% Tween, 1 mM DTT, 0.1 mM PMSF, leupeptine, aprotomine
To carry out experiments on kinetics under linear conditions, the final point test system for kinase activity measurement is used. The kinase is added to reaction mixture in such a way as to obtain linear activity with respect to the concentration of enzyme and with respect to time.
Kinase activity is determined at 30° C. in the kinase buffer.
Tested compounds are usually dissolved to 100 mM solutions in DMSO, final concentration of DMSO in reaction mixture never exceeds 1%. The controls contain suitable dilutions of DMSO.
After 10 min, addition 3×SDS sample buffer stops the incubations. […] The measurement of kinase activity is done using digital image analysis.
The kinase activity is expressed as a percentage of maximum activity, the apparent inhibition constants are determined by graphic analysis. Kinase buffer: 50 mM Hepes pH 7.4, 10 mM MgCl2, 5 mM EGTA, 10 mM 2-glycerolphosphate, 1 mM NaF, 1 mM DTT

Data set [2] concerns the target IκB-α. As to the kind of experiment: IκB-α kinase inhibition, in vitro kinase assay. It is filed as biochemical.
For data set [3], the system named is T-lymphoblastic leukemia cell line CEM. The data set can be described thus: In vitro cytotoxicity, MTT assay, CEM. In kind it is cell-based. The settings on record: Homo sapiens, 72 hours. The text has this: (§1) One of the parameters used, as the basis for colorimetric assays, is the metabolic activity of viable cells. For example, a microtiter assay, which uses the tetrazolium salt MTT, is now widely used to quantitate cell proliferation and cytotoxicity. For instance, this assay is used in drug screening programs and in chemosensitivity testing. Because only metabolically active cells cleave tetrazolium salts, these assays detect viable cells exclusively. In the case of MTT assay, yellow soluble tetrazolium salt is reduced to coloured water-insoluble formazan salt. After it is solubilized, the formazan formed can easily and rapidly be quantified in a conventional ELISA plate reader at 570 nm (maximum absorbance). The quantity of reduced formazan corresponds to number of vital cells in the culture.
(§2) The cells were maintained in Nunc/Corning 80 cm^2 plastic tissue culture flasks and cultured in cell culture medium (DMEM with 5 g/l glucose, 2 mM glutamine, 100 U/ml penicillin, 100 μg/ml streptomycin, 10% fetal calf serum and sodium bicarbonate).
(§3) The cell suspensions that were prepared and diluted according to the particular cell type and the expected target cell density (2.500-30.000 cells per well based on cell growth characteristics) were added by pipette (80 μl) into 96/well microtiter plates. Inoculates were allowed a pre-incubation period of 24 hours at 37° C. and 5% CO2 for stabilisation. Four-fold dilutions of the intended test concentration were added at time zero in 20 μl aliquots to the microtiter plate wells. Usually, test compound was evaluated at six 4-fold dilutions. […] All drug concentrations were examined in duplicates. Incubations of cells with the test compounds lasted for 72 hours at 37° C., in 5% CO2 atmosphere and 100% humidity. At the end of incubation period, the cells were assayed by using the MTT. Ten microliters of the MTT stock solution were pipetted into each well and incubated further for 1-4 hours. […] The optical density (OD) was measured at 540 nm with the Labsystem iEMS Reader MF (UK). The tumour cell survival (TCS) was calculated using the following equitation: TCS=(ODdrug exposed well/mean ODcontrol wells)×100%. The TCS50 value, the drug concentration lethal to 50% of the tumour cells, was calculated from the obtained dose response curves.
(Formazan colour is commonly taken as a measure of viable cells.)

Data set [4] has as its system B16 melanoma. The data set can be described thus: In vitro cytotoxicity, MTT assay, B16. It is filed as cell-based. The settings on record: Mus musculus, 72 hours.
From the text: as §1, §2, §3

The subject of data set [5] is normal human lymphocytes, spontaneous proliferation. As to the kind of experiment: Spontaneous proliferation of lymphocytes, 3H-thymidine incorporation. It is filed as cell-based. The settings on record: Lymphocyte, 72 hours, unstimulated lymphocytes. The method, then: (§4) Human heparinized peripheral blood was obtained from healthy volunteers by cubital vein punction.
(§5) The cells were diluted at target density of 1.100.000 cells/ml were added by pipet (180 μl) into 96/well microtiter plates. Four-fold dilutions of the intended test concentration were added at time zero in 20 μl aliquots to the microtiter plate wells. Usually, test compound was evaluated at six 4-fold dilutions. […] Incubations of cells with test compounds lasted for 72 hours at 37° C., in 5% CO2 atmosphere and 100% humidity. At the end of incubation period, the cells were assayed by using the [^3H]-TdR:
(§6) Cell cultures were incubated with […] (20 μl of stock solution 500 μCi/ml) per well for 6 hours at 37° C. and 5% CO2. The automated cell harvester was used to lyse cells in water and adsorb the DNA onto glass-fiber filters in the format of microtiter plate. The DNA incorporated [^3H]-TdR was retained on the filter while unincorporated material passes through. The filters were dried at room temperature overnight, sealed into a sample bag with 10-12 ml of scintillant. The amount of [^3]H-TdR present in each filter (in CCPM) was determined by scintillation counting in a Betaplate liquid scintillation counter. The effective dose of immunosuppressant (ED) was calculated using the following equotation: ED=(CCPMdrug exposed well/mean CCPMcontrol wells)×100%.
A general note: Incorporation of labelled thymidine or its analogues reports DNA synthesis.

In data set [6] the test system is normal human lymphocytes, mitogen activated proliferation. The data set can be described thus: Mitogen (concanavalin A) activated proliferation of lymphocytes, 3H-thymidine incorporation. It is filed as cell-based. The settings on record: Lymphocyte, 72 hours. The method, then:
as §4, §5, §6

[7] abbreviates: unit nM printed beside the value.

Where two headings read alike, the source gives them in different places.

T1 sequence (P06493 whole entry, species assumed): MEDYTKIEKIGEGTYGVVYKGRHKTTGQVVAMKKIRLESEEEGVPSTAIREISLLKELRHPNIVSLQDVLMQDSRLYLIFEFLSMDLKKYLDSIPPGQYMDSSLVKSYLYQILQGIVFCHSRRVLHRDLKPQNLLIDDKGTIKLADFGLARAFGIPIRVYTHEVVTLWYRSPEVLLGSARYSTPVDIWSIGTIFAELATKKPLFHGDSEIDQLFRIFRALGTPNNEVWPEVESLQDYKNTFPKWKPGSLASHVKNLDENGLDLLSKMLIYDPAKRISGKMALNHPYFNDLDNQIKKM
T1 sequence (P14635 whole entry partner, species assumed): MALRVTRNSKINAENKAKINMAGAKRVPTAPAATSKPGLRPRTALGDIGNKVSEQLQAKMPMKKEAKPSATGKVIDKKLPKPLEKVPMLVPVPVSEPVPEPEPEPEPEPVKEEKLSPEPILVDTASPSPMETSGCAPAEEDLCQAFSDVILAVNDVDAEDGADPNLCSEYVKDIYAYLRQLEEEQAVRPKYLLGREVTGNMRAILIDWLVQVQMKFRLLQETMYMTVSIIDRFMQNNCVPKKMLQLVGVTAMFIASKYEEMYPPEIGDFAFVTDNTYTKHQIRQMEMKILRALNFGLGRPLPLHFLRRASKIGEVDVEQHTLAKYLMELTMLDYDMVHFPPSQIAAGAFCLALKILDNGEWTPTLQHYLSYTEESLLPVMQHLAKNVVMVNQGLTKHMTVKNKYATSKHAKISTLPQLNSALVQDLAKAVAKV

One may read the IC50 as the concentration that gives 50% inhibition. In the case of `Cn1c(NCCO)nc2c(NCc3ccccc3)nc(NCCO)nc21`, the IC50 in data set [1] (30° C., 10 min) was 125000 nM; in data set [2] it was 154000 nM; in data set [3], more than 167 µM; in data set [4], more than 167 µM; in data set [5], not below 250 µM; in data set [6], 169 µM.

For `Cn1c(O)nc2c(NCc3ccccc3)nc(NCCO)nc21`, the IC50 turned out to be 13500 nM in data set [1] (30° C., 10 min); 16200 nM in data set [2]; 45.5 µM in data set [3]; 56.2 µM in data set [4]; 201 µM in data set [5]; 48.6 µM in data set [6].

For `Cn1c(S)nc2c(NCc3ccccc3)nc(NCCO)nc21`, the IC50 in data set [1] (30° C., 10 min) was 22400 nM; in data set [2], 35700 nM; in data set [3], 92.4 µM; in data set [4], 85.7 µM; in data set [5], not below 250 µM; in data set [6], 83.5 µM.

Regarding `CC(C)n1c(NCCO)nc2c(NCc3ccccc3)nc(NCCCO)nc21`, the IC50 in data set [1] (30° C., 10 min) was 144000 nM; in data set [2], 153000 nM; in data set [3], more than 167 µM; in data set [4] it was more than 167 µM; in data set [5], 181 µM; in data set [6], 29.3 µM.

On to `CC(C)n1c(N)nc2c(NCc3ccccc3)nc(NCCCO)nc21`, for which the IC50 in data set [1] (30° C., 10 min) came out at 8520 nM; in data set [2], 12800 nM; in data set [3] it was 8.52 µM; in data set [4], 6.8 µM; in data set [5] it was 143 µM; in data set [6] it was 1.59 µM.

On to `CC(C)n1c(O)nc2c(NCc3ccccc3)nc(NCCCO)nc21`, for which the IC50 in data set [1] (30° C., 10 min) stood at 6480 nM; in data set [2] it was 12600 nM; in data set [3], 7.48 µM; in data set [4], 5.6 µM; in data set [5], 163 µM; in data set [6], 2.1 µM.

With `CC(C)[C@H](CO)Nc1nc(Nc2cccc(Cl)c2)c2nc(F)n(C(C)C)c2n1`, the IC50 amounted to 3.8 nM in data set [1] (setting [7]), 11 nM in data set [2] (setting [7]) and 2.5 µM in data set [3].

For `CC[C@H](CO)Nc1nc(NCc2ccccc2)c2nc(NCN)n(C(C)C)c2n1`, the IC50 in data set [1] (30° C., 10 min) turned out to be 181000 nM; in data set [2], 193000 nM; in data set [5] it was 177 µM; in data set [6], 25.8 µM.

Take `CC[C@H](CO)Nc1nc(NCc2ccccc2)c2nc(F)n(C(C)C)c2n1`: the IC50 is 380 nM in data set [1] (30° C., 10 min); 1200 nM in data set [2]; 3.38 µM in data set [3]; 3.2 µM in data set [4].

By melting point is commonly meant the temperature of the solid-liquid transition. Regarding `CC(C)n1c(Br)nc2c(NCc3ccccc3)nc(NCCCO)nc21` [2-(3-hydroxypropylamino)-6-benzylamino-8-bromo-9-isopropypurine], the melting point fell in the range of 156 to 161 °C. Besides, the IC50 in data set [1] (30° C., 10 min) was found to be 12900 nM. Further, half-maximal inhibition in data set [2] (IC50) required 24500 nM. Besides, the IC50 in data set [3] turned out to be 117 µM. Further, half-maximal inhibition in data set [4] (IC50) was put at 76.4 µM. This compound showed an IC50 in data set [5] of 178 µM. In addition, the IC50 in data set [6] amounted to 5.9 µM.

Turning to `CSc1nc2c(NCc3ccccc3)nc(NCCCO)nc2n1C(C)C` [2-(3-hydroxypropylamino)-6-benzylamino-8-methylthio-9-isopropylpurine], the melting point was in the range of 64 to 67 °C. This compound registered an IC50 in data set [3] of 68.4 µM. In data set [4], this compound came in with an IC50 of 60.6 µM.

The compound `COc1cccc(CNc2nc(Cl)nc3c2nc(Br)n3C(C)C)c1` [Example 3, 6-(3-Methoxybenzylamino)-2-chloro-8-bromo-9-isopropylpurine] registered a melting point of 123 to 125 °C.
